Test results: US20080199438A1, “Methods For Suppressing Tumor Proliferation” (DNAVEC RESEARCH INC., priority 2004, published 2008)

How the values were obtained:
Type in all cases: cell-based, human
MRC5 cells [1] = experiment: FGF-2-mediated secretion of VEGF and HGF with signal transduction inhibitors or neutralizing antibody, ELISA; details: MRC5, 10 ng/ml FGF-2, 72 hours; rapamycin 100 ng/ml, U0126 10 μmol/L, Ras-inhibitory peptide 50 μmol/L
Description: (A) Effect of various inhibitors of intracellular signal transduction pathways upon the secretion of VEGF and HGF in MRC5 cells. After 48 hours of preincubation in the presence of 1% FBS, cells were stimulated with 10 ng/ml of human recombinant FGF-2 in the presence or absence of various inhibitors. After 72 hours, the medium was subjected to ELISA. n=3 in each group. *P<0.01.
(C) Increases in FGF-2-mediated VEGF secretion completely depend on PDGFRα. After 48 hours of preincubation in the presence of 1% FBS, MRC5 cells were stimulated with 10 ng/ml of recombinant human FGF-2 in the presence or absence of an anti-PDGFRα neutralizing antibody. After 72 hours, the medium was subjected to ELISA. Similar results were obtained for the expression of HGF (data not shown). *P<0.01.
HSMC (J. Cell Biol., 50: 172-86 (1971)), MRC-5 (ATCC CCL-171), SAS (J. Biol. Chem., 270 (41): 24321-69 (1995)), MH134 (J. Natl. Cancer Inst., 17: 1-21 (1956)), QG56 (Int. J. Cancer, 35 (6): 808-12 (1985)), TF (Cancer, 69 (10): 2589-97 (1992)), KN (Cancer, 69 (10): 2589-97 (1992)), EBC-1 (Am. J. Pathol., 142 (2): 425-31 (1993)), PC9 (Int. J. Cancer, 15 (4): 449-55 (1985)), and COS7 Cells (ATCC CRL-1651) were purchased from American Type Culture Collection (ATCC). As mentioned previously, the intracellular signal inhibitors below were each used at the following concentrations for HSMC and MRC5 cells (Onimaru M et al., Circ Res. 91: 723-730 (2002)): Ras, Ras-inhibitory peptide (50 μmol/L, Alexis Japan, Tokyo, Japan); p70S6K, p70S6K inhibitor rapamycin (100 ng/ml, Sigma-Aldrich Japan, Tokyo, Japan); PKC, PKC inhibitor bisindolylmaleimide (100 nmol/L, Sigma); PI3K, PI3K-inhibitor wortmannin (120 nmol/L, Sigma); MEK inhibitor U0126 (10 μmol/L, Promega K.K., Tokyo, Japan); PKA, PKA-inhibitory peptide (1 μmol/L, Calbiochem, San Diego, Calif.); and […], NF-κB inhibitor ALLN (5 μmol/L, Roche Diagnostics, Tokyo, Japan).
(§1) As mentioned previously (Masaki I et al., Circ Res. 90: 966-973 (2002); Onimaru M et al., Circ Res. 91: 723-730 (2002)), the protein contents of the mouse limb muscle, tumor, and culture medium were determined using Quantikine Immunoassay systems for mice (both the 164 and 220 amino acid residue forms are recognized) and human VEGF-A, human FGF-2 (available to both human and mouse), human HGF (R&D Systems Inc., Minneapolis, Minn.), and rat HGF (available to mouse HGF; Institute of Immunology Inc., Tokyo, Japan), according to the manufacturer's instructions.

HSMC [2] = experiment: Northern blot of receptor mRNA after growth factor stimulation
Description: (§2) (B) A time course of FGF-2-mediated expression of PDGFRα mRNA in MRC5 cells and HSMCs was analyzed by Northern blotting. After 48 hours of preincubation under serum-free conditions, each of the cell lines was stimulated with FGF-2. Cells were harvested at the time indicated in the figure and then subjected to Northern blot analysis. Bands were visualized and subjected to densitometric analysis using a photoimager. The experience was carried out in duplicate and similar results were obtained.
(§3) Total cellular RNA, isolated using the ISOGEN system (Wako Pure Chemicals, Osaka, Japan), was electrophoresed and transferred onto a nylon membrane. The membranes were hybridized overnight at 60° C. with random-primed [α-^32P]dCTP-labeled probes. The bands were visualized and subjected to densitometry using a photoimager.
(§4) To assess the role of the PDGF-AA signal in the angiogenic response of host vasculature, the FGF-2-mediated induction of VEGF and HGF in human mesenchymal cells (MRC5 and HSMC) cultured under serum-free conditions was investigated. […] In clinical application such as ischemia treatments, angiogenesis might also be induced more effectively by administering both FGF-2 and PDGF-AA, rather than either one alone.

MRC5 cells [3] = experiment: as above
Description: as §2, §3, §4

MRC5 cells [4] = experiment: Northern blot time course of FGF-2-mediated VEGF mRNA expression; details: MRC5, 10 ng/ml FGF-2, Northern blot
Description: (B) A p70S6K inhibitor, Rapamycin (RAPA) stops the later phase of FGF-2-mediated VEGF mRNA expression in MRC5 cells. After 48 hours of preincubation in the presence of 1% FBS, cells were stimulated with 10 ng/ml of recombinant human FGF-2. Cells were harvested at the time indicated in the figure and then subjected to Northern blot analysis. The bands were visualized and subjected to densitometric analysis using a photoimager.
as §3

MRC5 cells [5] = experiment: VEGF secretion after stimulation with FGF-2 and/or PDGF-AA, ELISA of culture medium; details: MRC5, serum-free, 72 hours
Description: (§5) (A) Recombinant FGF-2 and PDGF-AA work together to increase VEGF secretion from fibroblasts (MRC5) and vascular smooth muscle cells (HSMCs). After 48 hours of preincubation in serum-free conditions, each of the cell lines was stimulated with FGF-2 and/or PDGF-AA. After 72 hours, the cultured medium was subjected to ELISA. n3 in each group. *P<0.01. #P<0.05
as §1, §4

HSMC [6] = experiment: as above; details: serum-free, 72 hours
Description: as §5, §1, §4

| Compound | FGF-2-mediated upregulation of HGF/SF protein (MRC5 cells [1]) | FGF-2-mediated upregulation of VEGF protein (MRC5 cells [1]) | PDGFRα transcription (HSMC [2]) | PDGFRα transcription (MRC5 cells [3]; MRC5, Northern blot) | time course of FGF-2-mediated VEGF expression (MRC5 cells [4]) | release of VEGF into the culture medium (MRC5 cells [5]) | FGFR1 expression (MRC5 cells [3]; data not shown) | level of VEGF in the culture medium (HSMC [6]) |
| --- | --- | --- | --- | --- | --- | --- | --- | --- |
| N#CC(=C(/N)Sc1ccccc1N)/C(C#N)=C(\N)Sc1ccccc1N [MEK inhibitor, U0126, reference compound] | removed these effects | removed these effects | – | – | – | – | – | – |
| FGF-2: human recombinant fibroblast growth factor-2 used to stimulate cells | upregulated | upregulated | upregulation | upregulation | biphasic (at three hours and after that) upregulation | stimulated release of VEGF | – | – |
| PDGF-AA: recombinant PDGF-A homodimer used to stimulate cells | – | – | – | – | – | did not | did not change | upregulated |
